pKd: −log10 of the molar value.
Legend:
[1] = target: Beta-1 adrenergic receptor (Homo sapiens, UniProt P08588); assay: Displacement of [3H](-)CGP12177 from human beta1-AR expressed in CHOK1 cells after 2 hrs by TopCount microscintillation counting method
[2] = target: Beta-2 adrenergic receptor (Homo sapiens, UniProt P07550); assay: Displacement of [3H](-)CGP12177 from human beta2-AR expressed in CHOK1 cells after 2 hrs by TopCount microscintillation counting method
Chain of Beta-2 adrenergic receptor (P07550 whole entry): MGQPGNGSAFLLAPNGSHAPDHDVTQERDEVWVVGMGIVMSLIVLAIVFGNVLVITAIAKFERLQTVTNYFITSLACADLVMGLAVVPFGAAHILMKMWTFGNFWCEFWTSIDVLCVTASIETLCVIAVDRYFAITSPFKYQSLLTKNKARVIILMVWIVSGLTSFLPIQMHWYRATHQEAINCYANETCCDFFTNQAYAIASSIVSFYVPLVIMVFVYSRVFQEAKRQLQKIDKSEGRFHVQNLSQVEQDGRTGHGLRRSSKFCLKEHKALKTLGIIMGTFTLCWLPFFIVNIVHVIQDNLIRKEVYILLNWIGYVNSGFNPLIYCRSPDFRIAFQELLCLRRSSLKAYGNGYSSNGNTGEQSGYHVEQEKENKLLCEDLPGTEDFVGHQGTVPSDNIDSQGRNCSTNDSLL

Chain of Beta-1 adrenergic receptor (P08588 whole entry): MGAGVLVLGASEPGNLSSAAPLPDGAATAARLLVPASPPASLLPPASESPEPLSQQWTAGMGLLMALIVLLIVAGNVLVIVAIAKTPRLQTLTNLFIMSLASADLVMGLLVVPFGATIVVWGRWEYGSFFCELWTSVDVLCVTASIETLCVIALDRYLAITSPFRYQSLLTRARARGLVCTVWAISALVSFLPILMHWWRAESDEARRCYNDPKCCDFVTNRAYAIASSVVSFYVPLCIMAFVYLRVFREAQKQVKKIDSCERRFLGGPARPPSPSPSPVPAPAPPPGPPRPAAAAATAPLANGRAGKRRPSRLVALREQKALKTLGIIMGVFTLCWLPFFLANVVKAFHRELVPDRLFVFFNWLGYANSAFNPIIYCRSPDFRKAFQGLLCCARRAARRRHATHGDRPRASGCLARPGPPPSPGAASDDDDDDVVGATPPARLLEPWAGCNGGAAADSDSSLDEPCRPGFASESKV

Structure (SMILES) | pKd [1] | pKd [2]
Cc1cc(O)c(CN(C)C)c2c1C(=O)/C(=C/c1ccccc1)O2 | 4.33 | 4.60
CN(C)CCOc1ccc2ccccc2c1C=O | 4.01 | –
C[n+]1c(/C=C/Nc2ccccc2)sc2ccccc21 | 3.59 | –
Cc1cc(O)c(CN2CCCC2)c2c1C(=O)/C(=C/c1cc3ccccc3o1)O2 | 4.42 | 4.84
CCCCN(C)Cc1c(O)cc(C)c2c1O/C(=C\c1cc3cc(Br)ccc3o1)C2=O | – | 4.75
